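Method: 48-hour compound exposure of cells in 96-well plates, five concentrations, linear interpolation of endpoints. GI50: concentration for 50% inhibition of growth.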 Calls of active or inactive are those of the source. Rule as the data show it: active = GI50 up to about 1.1 µM and inactive = higher.
What was measured:
Test in all cases: NCI-60 cell line screen, 48 h
Malme-3M = tested on: Malme-3M
EKVX = tested on: EKVX
CAKI-1 = tested on: CAKI-1
SW-620 = tested on: SW-620
K562 = tested on: K562
SR = tested on: SR
NCI/ADR-RES = tested on: NCI/ADR-RES
SK-OV-3 = tested on: SK-OV-3
MDA-MB-231 = tested on: MDA-MB-231
Hs-578T = tested on: Hs-578T
HL-60 = tested on: HL-60
NCI-H23 = tested on: NCI-H23
RPMI-8226 = tested on: RPMI-8226
OVCAR-8 = tested on: OVCAR-8
UACC-62 = tested on: UACC-62
KM12 = tested on: KM12
M14 = tested on: M14
MOLT-4 = tested on: MOLT-4
A549 = tested on: A549
BT-549 = tested on: BT-549
SNB-75 = tested on: SNB-75
DU-145 = tested on: DU-145
T47D = tested on: T47D
HOP-92 = tested on: HOP-92
TK-10 = tested on: TK-10
COLO 205 = tested on: COLO 205
HCT-15 = tested on: HCT-15
HCC 2998 = tested on: HCC 2998
OVCAR-4 = tested on: OVCAR-4
786-0 = tested on: 786-0
CCRF-CEM = tested on: CCRF-CEM
UO-31 = tested on: UO-31
SN12C = tested on: SN12C
U-251 = tested on: U-251
MDA-N = tested on: MDA-N
UACC-257 = tested on: UACC-257
LOX IMVI = tested on: LOX IMVI
SF-268 = tested on: SF-268
IGROV-1 = tested on: IGROV-1
SK-MEL-28 = tested on: SK-MEL-28
MCF7 = tested on: MCF7
SF-539 = tested on: SF-539
SK-MEL-5 = tested on: SK-MEL-5
HOP-62 = tested on: HOP-62
MDA-MB-435 = tested on: MDA-MB-435
NCI-H460 = tested on: NCI-H460
A498 = tested on: A498
RXF 393 = tested on: RXF 393
OVCAR-3 = tested on: OVCAR-3
OVCAR-5 = tested on: OVCAR-5
PC-3 = tested on: PC-3
NCI-H226 = tested on: NCI-H226
NCI-H522 = tested on: NCI-H522
SK-MEL-2 = tested on: SK-MEL-2
HCT-116 = tested on: HCT-116
ACHN = tested on: ACHN
SF-295 = tested on: SF-295
SNB-19 = tested on: SNB-19
HT-29 = tested on: HT-29

For `O=C(Cc1ccccc1)NNc1nc(NNC(=O)c2ccncc2)nc(Nc2ccc(Cl)cc2)n1`, the GI50 (Malme-3M) was > 10 µM (inactive), the GI50 (EKVX) was > 10 µM (inactive) and the GI50 (CAKI-1) was > 10 µM (inactive). The GI50 (SW-620) was > 10 µM (inactive), the GI50 (K562) was > 10 µM (inactive) and the GI50 (SR) was > 10 µM (inactive). The GI50 (NCI/ADR-RES) was 5.85 µM (inactive), the GI50 (SK-OV-3) was > 10 µM (inactive) and the GI50 (MDA-MB-231) was > 10 µM (inactive). The GI50 (Hs-578T) was > 10 µM (inactive), the GI50 (HL-60) was > 10 µM (inactive) and the GI50 (NCI-H23) was > 10 µM (inactive). For the same compound, the GI50 (RPMI-8226) was > 10 µM (inactive), the GI50 (OVCAR-8) was > 10 µM (inactive) and the GI50 (UACC-62) was 9.68 µM (inactive). For the same compound, the GI50 (KM12) was > 10 µM (inactive), the GI50 (M14) was > 10 µM (inactive) and the GI50 (MOLT-4) was > 10 µM (inactive). For the same compound, the GI50 (A549) was > 10 µM (inactive), the GI50 (BT-549) was > 10 µM (inactive) and the GI50 (SNB-75) was > 10 µM (inactive). For the same compound, the GI50 (DU-145) was > 10 µM (inactive), the GI50 (T47D) was > 10 µM (inactive) and the GI50 (HOP-92) was > 10 µM (inactive). The GI50 (TK-10) was > 10 µM (inactive), the GI50 (COLO 205) was > 10 µM (inactive) and the GI50 (HCT-15) was > 10 µM. For the same compound, the GI50 (HCC 2998) was > 10 µM (inactive), the GI50 (OVCAR-4) was > 10 µM (inactive) and the GI50 (786-0) was > 10 µM (inactive). For the same compound, the GI50 (CCRF-CEM) was > 10 µM (inactive), the GI50 (UO-31) was > 10 µM (inactive) and the GI50 (SN12C) was > 10 µM (inactive). The GI50 (U-251) was > 10 µM (inactive), the GI50 (MDA-N) was > 10 µM (inactive) and the GI50 (UACC-257) was > 10 µM (inactive). For the same compound, the GI50 (LOX IMVI) was > 10 µM (inactive), the GI50 (SF-268) was > 10 µM (inactive) and the GI50 (IGROV-1) was > 10 µM (inactive). The GI50 (SK-MEL-28) was > 10 µM (inactive), the GI50 (MCF7) was > 10 µM (inactive) and the GI50 (SF-539) was > 10 µM (inactive). For the same compound, the GI50 (SK-MEL-5) was > 10 µM (inactive) and the GI50 (HOP-62) was > 10 µM (inactive).
In the case of `CCOC(=O)c1c(C)nc2c3ccccc3c(C#N)c(C)n12`, the GI50 (EKVX) is reported as 6.65 µM (inactive), the GI50 (CAKI-1) is reported as 79.3 µM (inactive) and the GI50 (SW-620) is reported as > 100 µM (inactive). The GI50 (MDA-MB-435) was > 100 µM (inactive), the GI50 (K562) was > 100 µM (inactive) and the GI50 (NCI-H460) was 49.4 µM (inactive). The GI50 (SR) was 33.9 µM (inactive), the GI50 (NCI/ADR-RES) was 80.4 µM (inactive) and the GI50 (A498) was > 100 µM (inactive). The GI50 (SK-OV-3) was 21.2 µM (inactive), the GI50 (MDA-MB-231) was 14.3 µM (inactive) and the GI50 (Hs-578T) was 32.9 µM (inactive). The GI50 (HL-60) was > 100 µM (inactive), the GI50 (RPMI-8226) was > 100 µM (inactive) and the GI50 (OVCAR-8) was 49.1 µM (inactive). The GI50 (UACC-62) was > 100 µM (inactive), the GI50 (KM12) was > 100 µM (inactive) and the GI50 (MOLT-4) was > 100 µM (inactive). The GI50 (A549) was 50.1 µM (inactive), the GI50 (BT-549) was > 100 µM (inactive) and the GI50 (SNB-75) was 20.6 µM (inactive). For the same compound, the GI50 (DU-145) was 74.8 µM (inactive), the GI50 (RXF 393) was 33.4 µM (inactive) and the GI50 (HOP-92) was 58.7 µM (inactive). For the same compound, the GI50 (TK-10) was > 100 µM (inactive), the GI50 (HCT-15) was > 100 µM and the GI50 (HCC 2998) was > 100 µM (inactive). For the same compound, the GI50 (OVCAR-4) was 94 µM (inactive), the GI50 (786-0) was > 10 µM (inactive) and the GI50 (CCRF-CEM) was > 100 µM (inactive). For the same compound, the GI50 (OVCAR-3) was > 100 µM (inactive), the GI50 (UO-31) was 15.6 µM (inactive) and the GI50 (SN12C) was > 100 µM (inactive). For the same compound, the GI50 (U-251) was 70.8 µM (inactive), the GI50 (MDA-N) was > 10 µM (inactive) and the GI50 (UACC-257) was > 100 µM (inactive). For the same compound, the GI50 (LOX IMVI) was > 100 µM (inactive), the GI50 (OVCAR-5) was 88.7 µM (inactive) and the GI50 (PC-3) was > 100 µM (inactive). The GI50 (NCI-H226) was > 100 µM (inactive), the GI50 (NCI-H522) was 23 µM (inactive) and the GI50 (IGROV-1) was 23 µM (inactive). The GI50 (SK-MEL-28) was > 100 µM (inactive), the GI50 (MCF7) was > 100 µM (inactive) and the GI50 (SK-MEL-2) was > 100 µM (inactive). The GI50 (SF-539) was > 100 µM (inactive), the GI50 (HCT-116) was 37.2 µM (inactive) and the GI50 (SK-MEL-5) was 48.1 µM (inactive). For the same compound, the GI50 (HOP-62) was 26.2 µM (inactive), the GI50 (ACHN) was 57.5 µM (inactive) and the GI50 (SF-295) was 34.9 µM (inactive). The GI50 (SNB-19) was > 100 µM (inactive).
With `O=C1c2cn[nH]c2N=C(Nc2ccccc2)C1/N=C/c1ccc([N+](=O)[O-])cc1` (stereo not drawn) the GI50 (Malme-3M) was > 10 µM (inactive), the GI50 (EKVX) was > 10 µM (inactive) and the GI50 (MDA-MB-435) was > 10 µM (inactive). The GI50 (K562) was > 10 µM (inactive), the GI50 (NCI-H460) was > 10 µM (inactive) and the GI50 (SR) was > 10 µM (inactive). For the same compound, the GI50 (Hs-578T) was > 10 µM (inactive), the GI50 (HL-60) was > 10 µM (inactive) and the GI50 (NCI-H23) was > 10 µM (inactive). For the same compound, the GI50 (OVCAR-8) was > 10 µM (inactive), the GI50 (KM12) was > 10 µM (inactive) and the GI50 (M14) was > 10 µM (inactive). For the same compound, the GI50 (MOLT-4) was > 10 µM (inactive), the GI50 (A549) was > 10 µM (inactive) and the GI50 (BT-549) was > 10 µM (inactive). The GI50 (SNB-75) was > 10 µM (inactive), the GI50 (DU-145) was > 10 µM (inactive) and the GI50 (TK-10) was > 10 µM (inactive). For the same compound, the GI50 (HCC 2998) was > 10 µM (inactive), the GI50 (OVCAR-4) was > 10 µM (inactive) and the GI50 (786-0) was > 10 µM (inactive). For the same compound, the GI50 (CCRF-CEM) was > 10 µM (inactive), the GI50 (OVCAR-3) was > 10 µM (inactive) and the GI50 (UO-31) was > 10 µM (inactive). For the same compound, the GI50 (SN12C) was > 10 µM (inactive), the GI50 (U-251) was > 10 µM (inactive) and the GI50 (MDA-N) was > 10 µM (inactive). The GI50 (UACC-257) was > 10 µM (inactive), the GI50 (LOX IMVI) was > 10 µM (inactive) and the GI50 (OVCAR-5) was > 10 µM (inactive). For the same compound, the GI50 (PC-3) was > 10 µM (inactive), the GI50 (NCI-H226) was > 10 µM (inactive) and the GI50 (SF-268) was > 10 µM (inactive). The GI50 (NCI-H522) was > 10 µM (inactive), the GI50 (MCF7) was > 10 µM (inactive) and the GI50 (SF-539) was > 10 µM (inactive). The GI50 (HCT-116) was > 10 µM (inactive), the GI50 (SK-MEL-5) was > 10 µM (inactive) and the GI50 (ACHN) was > 10 µM (inactive). The GI50 (SF-295) was > 10 µM (inactive), the GI50 (HT-29) was > 10 µM (inactive) and the GI50 (SNB-19) was > 10 µM (inactive).

Reference: ChEMBL document CHEMBL1201862, “PubChem BioAssay data set” (2004)
